Where two headings read alike, the source gives them in different places.
Columns and labels:
[1] = test system: individual who is a carrier of the CF gene; experiment: Fatty acid profile blood tests before and after 10-day oral isothiocyanate (individual study); assay type: in vivo, human
Protocol: Example 1. Individual study based on 10 mg consumption of BITC. An isothiocyanate of 10 mg was taken orally per day for 10 days by an individual who is a carrier of the CF gene. Blood tests were performed before and after the 10-day study to determine the fatty acid levels before and after administration of the isothiocyanate.

[2] = test system: glutathione S-transferase; conditions: cited from earlier work; for glutathione S-transferase activity: HT29 cells
[3] = +10 days vs baseline, 10 mg orally per day

S=C=NCc1ccccc1 [BITC, benzyl isothiocyanate]
Arachidic Acid, % Change [1, 3]: −8.93%
Arachidonic Acid, % Change [1, 3]: −3.31%
DHA C22:6W3, % Change [1, 3]: 36.29%
DPA C22 6W3, % Change [1, 3]: −5.19%
DPA C22:6W6, % Change [1, 3]: −8.7%
DTA C22 4W6T, % Change [1, 3]: 6.45%
Docosanoic Acid C22:0, % Change [1, 3]: 22.59%
Docosanoic Acid C22:1, % Change [1, 3]: 0%
EPA, % Change [1, 3]: 18.57%
Hexacosanoic Acid C24:0, % Change [1, 3]: 33.33%
Hexacosanoic Acid C28:1, % Change [1, 3]: 29.17%
Mead Acid, % Change [1, 3]: 0%
Nervonic Acid, % Change [1, 3]: −2.47%
Phytanic Acid, % Change [1, 3]: 18.8%
Priatanic Acid, % Change [1, 3]: 11.11%
Tetracosanoic Acid, % Change [1, 3]: 24.6%
Tiete Tebrana Ratio, % Change [1, 3]: 0%
Total Fatty Acids, % Change [1, 3]: 1.87%
Total Monounsaturated, % Change [1, 3]: 12%
Total Polyunsaturated, % Change [1, 3]: 4.35%
Total Saturated, % Change [1, 3]: 0%
Total w3, % Change [1, 3]: 20%
Total w61, % Change [1, 3]: 2.44%
h-g-Linoleic Acid, % Change [1, 3]: −9.88%
Tiete Tebrana Ratio, +10 days ([1]; blood test after 10 mg orally per day for 10 days, baseline 0.031): 0.031
Priatanic Acid, +10 days ([1]; blood test after 10 mg orally per day for 10 days, baseline 0.09): 0.1
Hexacosanoic Acid C24:0, +10 days ([1]; blood test after 10 mg orally per day for 10 days, baseline 0.3): 0.4
Hexacosanoic Acid C28:1, +10 days ([1]; blood test after 10 mg orally per day for 10 days, baseline 0.48): 0.62
Total w3, +10 days ([1]; blood test after 10 mg orally per day for 10 days, baseline 0.5): 0.6
Phytanic Acid, +10 days ([1]; blood test after 10 mg orally per day for 10 days, baseline 1.33): 1.58
Total Monounsaturated, +10 days ([1]; blood test after 10 mg orally per day for 10 days, baseline 2.5): 2.8
Docosanoic Acid C22:1, +10 days ([1]; blood test after 10 mg orally per day for 10 days, baseline 3): 3
Total Saturated, +10 days ([1]; blood test after 10 mg orally per day for 10 days, baseline 3.5): 3.5
Total w61, +10 days ([1]; blood test after 10 mg orally per day for 10 days, baseline 4.1): 4.2
Total Polyunsaturated, +10 days ([1]; blood test after 10 mg orally per day for 10 days, baseline 4.6): 4.8
Total Fatty Acids, +10 days ([1]; blood test after 10 mg orally per day for 10 days, baseline 10.7): 10.9
DPA C22:6W6, +10 days ([1]; blood test after 10 mg orally per day for 10 days, baseline 23): 21
Mead Acid, +10 days ([1]; blood test after 10 mg orally per day for 10 days, baseline 25): 25
DTA C22 4W6T, +10 days ([1]; blood test after 10 mg orally per day for 10 days, baseline 31): 33
Tetracosanoic Acid, +10 days ([1]; blood test after 10 mg orally per day for 10 days, baseline 44.3): 55.2
Arachidic Acid, +10 days ([1]; blood test after 10 mg orally per day for 10 days, baseline 56): 51
Docosanoic Acid C22:0, +10 days ([1]; blood test after 10 mg orally per day for 10 days, baseline 60.2): 73.8
EPA, +10 days ([1]; blood test after 10 mg orally per day for 10 days, baseline 70): 83
DPA C22 6W3, +10 days ([1]; blood test after 10 mg orally per day for 10 days, baseline 77): 73
Nervonic Acid, +10 days ([1]; blood test after 10 mg orally per day for 10 days, baseline 81): 79
h-g-Linoleic Acid, +10 days ([1]; blood test after 10 mg orally per day for 10 days, baseline 243): 219
DHA C22:6W3, +10 days ([1]; blood test after 10 mg orally per day for 10 days, baseline 248): 338
Arachidonic Acid, +10 days ([1]; blood test after 10 mg orally per day for 10 days, baseline 847): 819
effect on glutathione S-transferase activity (in words) ([2]; HT29 cells cultures exposed to BITC): statistically significant increase
glutathione S-transferase activity ([2]; 5 μmol/L of BITC): ~0.51 μmol min^−1 mg proteins^−1
glutathione S-transferase activity ([2]; 25 μmol/L of BITC): ~0.74 μmol min^−1 mg protein^−1
